Experimental data taken from patent US20100098791A1, “COMPOSITION FOR TREATING XEROSTOMIA OR DRY MOUTH” (priority 2007, published 2010).

Experiment: Dentin loss under extreme erosion conditions, composition versus its three ingredients separately (Example 8)
Design: species or system cow
Conditions: 10 cycles: 5 min pre-treatment, 1% citric acid pH 2.3 for 3 min
Experimental: The protective capacity of a mouthwash formulated with olive oil, trimethylglycine and xylitol in dentin subjected to extreme erosion conditions was analysed, compared to that of aqueous solutions of the three ingredients separately in the same concentrations used in the mouthwash tested. For the evaluation of effects a control was included consisting of distilled water.
Incisive teeth extracted from a cow's jaw were used, which were immersed in a 0.5% thymol solution at room temperature. The teeth were sectioned at the cementum-enamel junction by means of a water-cooled diamond scalpel (Exakt, Norderstedt, Germany), and the crowns and roots were embedded in acrylic resin cylinders (Paladur, Heraeus Kulzer, Wehrheim, Germany). Radicular cementum was completely eliminated. […]
Dentin loss was quantified performing profile or profilometric measurements (Mahr Perthometer, Göttingen, Germany). […] After the experiment the adhesive tapes were removed and the samples were analysed again. The average depth of the eroded surfaces was thus calculated with respect to basic surface profiles by means of specific software (Mahr Perthometer Concept 7.0, Mahr, Göttingen, Germany).
Dentin loss was calculated (mean±standard deviation) for each group and statistically analysed by Student's t test followed by Bonferroni's t test for multiple comparisons (Statistica 6.0, Statsoft, Tulsa, USA).

Row | SMILES | protective effect on dentin against erosion
1 | OC[C@@H](O)[C@H](O)[C@@H](O)CO [1% xylitol solution, xylitol] | did not demonstrate any protective effect
2 | C[N+](C)(C)CC(=O)[O-] [2% trimethylglycine solution, trimethylglycine] | did not demonstrate any protective effect
